Article PMC11631053, “A receptor-based assay to study the sweet and bitter tastes of sweeteners and binary sweet blends: the SWEET project” (Chemical Senses, 2024)

How the values were obtained:
[1] = biological target: T1, TAS2R20 (Homo sapiens, UniProt P59543); assay: Calcium mobilization assay, HEK293T-Gα16gust44 cells expressing TAS2R20; conditions: maximal concentration tested: sucralose 100 mM, neotame 30 µM, Ace-K 300 mM, RebA 4 mM, RebM 4 mM, mogroside V 5 mM, erythritol 200 mM, D-allulose 500 mM, thaumatin 100 mM
T1 sequence (P59543 1-309): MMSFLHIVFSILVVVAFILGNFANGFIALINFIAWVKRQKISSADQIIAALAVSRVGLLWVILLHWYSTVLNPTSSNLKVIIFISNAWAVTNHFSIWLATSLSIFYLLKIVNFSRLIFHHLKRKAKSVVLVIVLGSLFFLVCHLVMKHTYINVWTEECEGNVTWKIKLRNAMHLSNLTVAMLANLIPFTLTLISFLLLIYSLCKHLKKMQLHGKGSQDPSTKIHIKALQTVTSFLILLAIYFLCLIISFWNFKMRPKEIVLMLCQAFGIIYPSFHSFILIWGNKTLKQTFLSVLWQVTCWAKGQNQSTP
Method: (§1) Different concentration ranges were tested depending on the injected sweet compound. […] All of the concentration-receptor combinations were measured in triplicate, and each experiment was repeated at least 3 times. The Ca^2+ change was expressed as a fractional change in fluorescent light intensity: ΔF/F = (F − F0)/F0, where F was the fluorescent light intensity at each point, and F0 was the value of fluorescent light emitted prior to stimulus application. To calculate dose–response relationships, the changes in fluorescence upon stimulus application were averaged, mock-subtracted and baseline-corrected. The resulting obtained dose–response data were adjusted by using a 4-parameter logistic equation.

[2] = biological target: T2, TAS2R42 (Homo sapiens, UniProt Q7RTR8); assay: Calcium mobilization assay, HEK293T-Gα16gust44 cells expressing TAS2R42; conditions: maximal concentration tested: sucralose 100 mM, neotame 30 µM, Ace-K 300 mM, RebA 4 mM, RebM 4 mM, mogroside V 5 mM, erythritol 200 mM, D-allulose 500 mM, thaumatin 100 mM
T2 sequence (Q7RTR8 1-314): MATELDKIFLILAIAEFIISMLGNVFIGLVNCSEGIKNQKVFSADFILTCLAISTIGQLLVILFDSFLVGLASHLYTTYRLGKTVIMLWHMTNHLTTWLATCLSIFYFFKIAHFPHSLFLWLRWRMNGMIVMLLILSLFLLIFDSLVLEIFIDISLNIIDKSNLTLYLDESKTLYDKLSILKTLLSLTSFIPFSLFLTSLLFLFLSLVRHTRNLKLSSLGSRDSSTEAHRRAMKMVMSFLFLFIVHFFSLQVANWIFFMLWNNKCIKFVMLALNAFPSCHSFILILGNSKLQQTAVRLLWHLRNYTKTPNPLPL
Method: (§2) Different concentration ranges were tested depending on the injected sweet compound. […] All of the concentration-receptor combinations were measured in triplicate, and each experiment was repeated at least 3 times. The Ca^2+ change was expressed as a fractional change in fluorescent light intensity: ΔF/F = (F − F0)/F0, where F was the fluorescent light intensity at each point, and F0 was the value of fluorescent light emitted prior to stimulus application. To calculate dose–response relationships, the changes in fluorescence upon stimulus application were averaged, mock-subtracted and baseline-corrected. The resulting obtained dose–response data were adjusted by using a 4-parameter logistic equation. The half-maximal effective concentration (EC50) was calculated by using SigmaPlot software (Systat Software, San Jose, CA, USA) as described in supplemental Supplementary Figs. S1, S2, and S3.

[3] = biological target: T3, TAS2R3 (Homo sapiens, UniProt Q9NYW6); assay: Calcium mobilization assay, HEK293T-Gα16gust44 cells expressing TAS2R3; conditions: maximal concentration tested: sucralose 100 mM, neotame 30 µM, Ace-K 300 mM, RebA 4 mM, RebM 4 mM, mogroside V 5 mM, erythritol 200 mM, D-allulose 500 mM, thaumatin 100 mM
T3 sequence (Q9NYW6 1-316): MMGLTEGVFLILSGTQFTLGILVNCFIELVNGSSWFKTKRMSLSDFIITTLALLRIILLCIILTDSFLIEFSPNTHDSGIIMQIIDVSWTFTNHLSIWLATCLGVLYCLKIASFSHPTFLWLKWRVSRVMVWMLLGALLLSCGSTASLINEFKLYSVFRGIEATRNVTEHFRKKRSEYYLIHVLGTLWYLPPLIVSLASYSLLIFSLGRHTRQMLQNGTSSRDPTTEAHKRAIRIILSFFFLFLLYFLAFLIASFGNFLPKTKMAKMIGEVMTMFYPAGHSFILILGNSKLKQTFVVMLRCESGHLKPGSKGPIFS
Method: as §2

[4] = biological target: T4, TAS2R7 (Homo sapiens, UniProt Q9NYW3); assay: Calcium mobilization assay, HEK293T-Gα16gust44 cells expressing TAS2R7; conditions: maximal concentration tested: sucralose 100 mM, neotame 30 µM, Ace-K 300 mM, RebA 4 mM, RebM 4 mM, mogroside V 5 mM, erythritol 200 mM, D-allulose 500 mM, thaumatin 100 mM
T4 sequence (Q9NYW3 1-318): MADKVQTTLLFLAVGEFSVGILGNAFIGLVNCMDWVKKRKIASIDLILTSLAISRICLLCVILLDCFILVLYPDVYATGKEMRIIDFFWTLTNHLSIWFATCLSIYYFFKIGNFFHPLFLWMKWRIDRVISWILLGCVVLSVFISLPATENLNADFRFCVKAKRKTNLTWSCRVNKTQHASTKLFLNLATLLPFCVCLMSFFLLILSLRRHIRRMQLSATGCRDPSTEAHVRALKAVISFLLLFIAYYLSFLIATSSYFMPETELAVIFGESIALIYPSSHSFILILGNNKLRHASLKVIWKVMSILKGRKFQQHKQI
Method: as §2

[5] = biological target: T5, TAS2R30 (Homo sapiens, UniProt P59541); assay: Calcium mobilization assay, HEK293T-Gα16gust44 cells expressing TAS2R30; conditions: for Response of TAS2R30: maximal concentration tested: sucralose 100 mM, neotame 30 µM, Ace-K 300 mM, RebA 4 mM, RebM 4 mM, mogroside V 5 mM, erythritol 200 mM, D-allulose 500 mM, thaumatin 100 mM
T5 sequence (P59541 1-319): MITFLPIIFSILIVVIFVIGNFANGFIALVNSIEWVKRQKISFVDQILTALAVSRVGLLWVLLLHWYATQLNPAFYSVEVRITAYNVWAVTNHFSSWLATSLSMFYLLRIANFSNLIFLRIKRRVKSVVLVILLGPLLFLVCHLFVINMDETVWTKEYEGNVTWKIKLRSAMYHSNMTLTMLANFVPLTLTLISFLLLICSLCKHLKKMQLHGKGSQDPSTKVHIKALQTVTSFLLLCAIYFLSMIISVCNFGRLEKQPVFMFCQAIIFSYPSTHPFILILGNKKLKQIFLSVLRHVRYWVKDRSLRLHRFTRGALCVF
Method: as §1

[6] = biological target: T6, TAS2R38 (Homo sapiens, UniProt P59533); assay: Calcium mobilization assay, HEK293T-Gα16gust44 cells expressing TAS2R38; conditions: maximal concentration tested: sucralose 100 mM, neotame 30 µM, Ace-K 300 mM, RebA 4 mM, RebM 4 mM, mogroside V 5 mM, erythritol 200 mM, D-allulose 500 mM, thaumatin 100 mM
T6 sequence (P59533 1-333): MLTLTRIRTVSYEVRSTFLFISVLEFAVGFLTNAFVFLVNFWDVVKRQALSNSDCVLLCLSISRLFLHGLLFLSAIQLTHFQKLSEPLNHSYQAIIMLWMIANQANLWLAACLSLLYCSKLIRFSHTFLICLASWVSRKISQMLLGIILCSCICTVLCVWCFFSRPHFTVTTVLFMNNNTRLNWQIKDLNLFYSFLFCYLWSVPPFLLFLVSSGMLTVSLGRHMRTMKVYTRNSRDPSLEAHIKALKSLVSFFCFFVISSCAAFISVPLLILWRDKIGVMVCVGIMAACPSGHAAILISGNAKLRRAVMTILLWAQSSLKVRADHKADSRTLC
Method: as §1

[7] = biological target: T7, TAS2R39 (Homo sapiens, UniProt P59534); assay: Calcium mobilization assay, HEK293T-Gα16gust44 cells expressing TAS2R39; conditions: maximal concentration tested: sucralose 100 mM, neotame 30 µM, Ace-K 300 mM, RebA 4 mM, RebM 4 mM, mogroside V 5 mM, erythritol 200 mM, D-allulose 500 mM, thaumatin 100 mM
T7 sequence (P59534 1-338): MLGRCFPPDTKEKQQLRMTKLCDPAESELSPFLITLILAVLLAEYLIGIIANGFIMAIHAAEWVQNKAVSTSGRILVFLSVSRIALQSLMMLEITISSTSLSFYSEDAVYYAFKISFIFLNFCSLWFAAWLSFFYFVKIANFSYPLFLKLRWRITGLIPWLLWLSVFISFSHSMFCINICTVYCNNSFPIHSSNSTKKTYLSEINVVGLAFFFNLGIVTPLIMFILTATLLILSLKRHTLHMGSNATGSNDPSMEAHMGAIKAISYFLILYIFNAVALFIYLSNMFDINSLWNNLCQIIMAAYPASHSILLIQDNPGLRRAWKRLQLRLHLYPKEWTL
Method: as §1

[8] = biological target: TAS2R38-PAV (Homo sapiens, UniProt P59533, A49P/I296V); assay: Calcium mobilization assay, HEK293T-Gα16gust44 cells expressing TAS2R38-PAV
Chain of TAS2R38-PAV (P59533 whole entry A49P/I296V): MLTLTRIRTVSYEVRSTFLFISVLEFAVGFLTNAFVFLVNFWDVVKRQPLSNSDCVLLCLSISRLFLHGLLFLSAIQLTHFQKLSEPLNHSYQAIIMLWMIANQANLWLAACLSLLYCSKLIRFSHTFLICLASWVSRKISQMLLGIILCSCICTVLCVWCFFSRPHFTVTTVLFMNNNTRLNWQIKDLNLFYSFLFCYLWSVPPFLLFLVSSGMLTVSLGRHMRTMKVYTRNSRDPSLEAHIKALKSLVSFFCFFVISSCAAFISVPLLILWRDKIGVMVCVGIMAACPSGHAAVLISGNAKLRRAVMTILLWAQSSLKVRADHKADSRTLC
Method: as §2

| Compound | Response of TAS2R20 [1] | Response of TAS2R42 [2] | Response of TAS2R3 [3] | Response of TAS2R7 [4] | Response of TAS2R30 [5] | Response of TAS2R38 [6] | Response of TAS2R39 [7] | concentrations at which TAS2R30 was activated [5] | concentrations at which TAS2R38-PAV was activated [8] | EC50 ([8]; read-out: TAS2R38-PAV EC50, text prints TAS2R38) |
| --- | --- | --- | --- | --- | --- | --- | --- | --- | --- | --- |
| CC1=CC(=O)NS(=O)(=O)O1 [Ace-K, acesulfame-K] | − | − | − | − | − | − | − |  |  |  |
| O=C(CO)[C@H](O)[C@H](O)[C@H](O)CO [D-allulose] | − | + | − | − | + | + | − | > 300 mM | > 300 mM |  |
| OC[C@@H](O)[C@@H](O)CO [Erythritol, erythritol] | − | − | − | − | − | − | − |  |  |  |
| C[C@H](CC[C@@H](O[C@@H]1O[C@H](CO[C@@H]2O[C@H](CO)[C@@H](O)[C@H](O)[C@H]2O)[C@@H](O)[C@H](O)[C@H]1O[C@@H]1O[C@H](CO)[C@@H](O)[C@H](O)[C@H]1O)C(C)(C)O)[C@H]1CC[C@@]2(C)[C@@H]3CC=C4[C@@H](CC[C@H](O[C@@H]5O[C@H](CO[C@@H]6O[C@H](CO)[C@@H](O)[C@H](O)[C@H]6O)[C@@H](O)[C@H](O)[C@H]5O)C4(C)C)[C@]3(C)[C@H](O)C[C@]12C [Mogroside V, mogroside V] | − | − | − | − | − | + | − |  |  | 253 ± 139 µM |
| COC(=O)[C@H](Cc1ccccc1)NC(=O)[C@H](CC(=O)O)NCCC(C)(C)C [Neotame] | − | − | − | − | − | − | − |  |  |  |
| C=C1C[C@@]23CC[C@H]4[C@@](C)(CCC[C@@]4(C)C(=O)O[C@@H]4O[C@H](CO)[C@@H](O)[C@H](O[C@@H]5O[C@H](CO)[C@@H](O)[C@H](O)[C@H]5O)[C@H]4O[C@@H]4O[C@H](CO)[C@@H](O)[C@H](O)[C@H]4O)[C@@H]2CC[C@]1(O[C@@H]1O[C@H](CO)[C@@H](O)[C@H](O[C@@H]2O[C@H](CO)[C@@H](O)[C@H](O)[C@H]2O)[C@H]1O[C@@H]1O[C@H](CO)[C@@H](O)[C@H](O)[C@H]1O)C3 [RebM, Rebaudioside M] | − | − | − | − | − | − | − |  |  |  |
| OC[C@H]1O[C@H](O[C@]2(CCl)O[C@H](CCl)[C@@H](O)[C@@H]2O)[C@H](O)[C@@H](O)[C@H]1Cl [Sucralose, sucralose] | − | − | − | − | − | − | − |  |  |  |
| thaumatin | − | − | − | − | − | − | − |  |  |  |
